Active and inactive are the calls of the source. The rule behind the calls is not given here.
Legend:
[1] = molecular target: T1, 5-hydroxytryptamine receptor 1A (Homo sapiens) (UniProt P08908); experiment: Agonist activity at human 5HT1A receptor expressed in CHO cells by inhibition of […] forskolin-stimulated cAMP production relative to 5-HT; type: functional, cell-based
T1 sequence (whole entry): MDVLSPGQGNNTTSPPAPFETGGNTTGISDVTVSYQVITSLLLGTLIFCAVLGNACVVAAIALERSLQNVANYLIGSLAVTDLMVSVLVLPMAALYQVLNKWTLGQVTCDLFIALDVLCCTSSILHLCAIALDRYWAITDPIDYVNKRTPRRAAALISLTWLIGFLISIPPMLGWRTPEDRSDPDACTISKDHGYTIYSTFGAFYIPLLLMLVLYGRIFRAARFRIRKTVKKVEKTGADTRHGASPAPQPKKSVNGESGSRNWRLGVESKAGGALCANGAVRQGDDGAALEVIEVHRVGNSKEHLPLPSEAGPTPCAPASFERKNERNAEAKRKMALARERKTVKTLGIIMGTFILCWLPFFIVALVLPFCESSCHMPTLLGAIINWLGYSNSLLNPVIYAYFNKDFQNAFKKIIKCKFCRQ

[2] = molecular target: T2, Adrenergic receptor alpha-1 (Rattus norvegicus, UniProt P15823+P23944+P43140); experiment: Displacement of [3H]prazosin from alpha-1 adrenergic receptor in Sprague-Dawley rat cortical membranes; type: cell membranes, Membrane
T2 sequence (P15823 whole entry): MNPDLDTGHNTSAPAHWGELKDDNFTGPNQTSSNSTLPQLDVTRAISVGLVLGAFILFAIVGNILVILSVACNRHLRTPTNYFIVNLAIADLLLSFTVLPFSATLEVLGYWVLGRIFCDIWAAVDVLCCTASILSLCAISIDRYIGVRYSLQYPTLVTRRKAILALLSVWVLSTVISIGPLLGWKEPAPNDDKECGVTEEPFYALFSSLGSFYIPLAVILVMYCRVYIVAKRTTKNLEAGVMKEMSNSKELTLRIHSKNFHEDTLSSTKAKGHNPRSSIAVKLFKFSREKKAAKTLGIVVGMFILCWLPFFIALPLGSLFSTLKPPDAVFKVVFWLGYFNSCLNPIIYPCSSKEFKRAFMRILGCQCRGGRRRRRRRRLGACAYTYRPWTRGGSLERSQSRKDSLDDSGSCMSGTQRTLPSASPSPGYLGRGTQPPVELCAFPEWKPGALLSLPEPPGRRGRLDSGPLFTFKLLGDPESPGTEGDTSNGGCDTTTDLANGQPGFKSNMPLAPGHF
T2 sequence (P23944 whole entry): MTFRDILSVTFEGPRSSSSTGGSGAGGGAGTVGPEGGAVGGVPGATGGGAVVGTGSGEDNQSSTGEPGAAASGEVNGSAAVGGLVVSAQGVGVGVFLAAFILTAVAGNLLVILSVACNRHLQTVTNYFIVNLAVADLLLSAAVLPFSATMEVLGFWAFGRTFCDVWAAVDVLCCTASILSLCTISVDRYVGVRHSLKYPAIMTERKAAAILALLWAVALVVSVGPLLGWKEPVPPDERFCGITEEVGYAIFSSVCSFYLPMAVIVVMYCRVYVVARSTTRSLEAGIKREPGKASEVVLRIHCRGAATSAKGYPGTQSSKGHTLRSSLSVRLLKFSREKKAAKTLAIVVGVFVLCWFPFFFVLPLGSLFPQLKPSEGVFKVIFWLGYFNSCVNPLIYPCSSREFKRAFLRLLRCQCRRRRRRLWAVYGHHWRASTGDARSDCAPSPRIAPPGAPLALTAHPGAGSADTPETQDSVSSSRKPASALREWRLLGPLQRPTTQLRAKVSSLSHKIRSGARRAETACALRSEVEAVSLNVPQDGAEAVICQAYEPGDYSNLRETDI
T2 sequence (P43140 whole entry): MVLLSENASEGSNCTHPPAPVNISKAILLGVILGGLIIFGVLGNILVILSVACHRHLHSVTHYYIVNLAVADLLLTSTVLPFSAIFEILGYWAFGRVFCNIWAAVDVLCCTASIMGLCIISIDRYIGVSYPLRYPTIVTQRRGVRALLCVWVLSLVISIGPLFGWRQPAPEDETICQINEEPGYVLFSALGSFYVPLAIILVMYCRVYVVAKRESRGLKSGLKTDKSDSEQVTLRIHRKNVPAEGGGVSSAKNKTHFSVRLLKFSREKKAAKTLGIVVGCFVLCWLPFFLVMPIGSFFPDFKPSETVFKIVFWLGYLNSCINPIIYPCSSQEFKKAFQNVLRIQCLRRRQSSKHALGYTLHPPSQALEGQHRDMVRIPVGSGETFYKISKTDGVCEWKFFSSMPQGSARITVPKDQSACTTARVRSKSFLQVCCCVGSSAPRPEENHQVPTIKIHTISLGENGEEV

[3] = molecular target: Sodium-dependent serotonin transporter (Homo sapiens, UniProt P31645); type: cell-based, JAR
Description: Inhibition of [3H]5-HT uptake at human 5-HT transporter expressed in Jar cells

[4] = molecular target: T3, 5-hydroxytryptamine receptor 1A (Homo sapiens, UniProt P08908); experiment: biochemical
T3 sequence (P08908 whole entry): T1 sequence (whole entry)
Description: Displacement of [3H]-8-OH-DPAT from human 5HT1A receptor expressed in CHO cells

[5] = molecular target: Sodium-dependent serotonin transporter (Rattus norvegicus, UniProt P31652)
Description: Displacement of [3H]paroxetine from 5-HT transporter in Sprague-Dawley rat cortical membranes

[6] = molecular target: Adrenergic receptor alpha-1 (Rattus norvegicus) (UniProt P15823+P23944+P43140); experiment: Displacement of [3H]prazosin from alpha-1 adrenergic receptor in Sprague-Dawley rat cortical membranes at 1 uM; type: cell membranes; details: Membrane
[7] = molecular target: T3, 5-hydroxytryptamine receptor 1A
Rattus norvegicus = experiment: Increase of 5-HT levels in Sprague-Dawley rat frontal cortex at 30 mg/kg, po relative to control by microdialysis assay; type: functional, organism-based; set-up: dose 30 mg/kg

Sequence of Sodium-dependent serotonin transporter (Rattus norvegicus, UniProt P31652) (P31652 whole entry): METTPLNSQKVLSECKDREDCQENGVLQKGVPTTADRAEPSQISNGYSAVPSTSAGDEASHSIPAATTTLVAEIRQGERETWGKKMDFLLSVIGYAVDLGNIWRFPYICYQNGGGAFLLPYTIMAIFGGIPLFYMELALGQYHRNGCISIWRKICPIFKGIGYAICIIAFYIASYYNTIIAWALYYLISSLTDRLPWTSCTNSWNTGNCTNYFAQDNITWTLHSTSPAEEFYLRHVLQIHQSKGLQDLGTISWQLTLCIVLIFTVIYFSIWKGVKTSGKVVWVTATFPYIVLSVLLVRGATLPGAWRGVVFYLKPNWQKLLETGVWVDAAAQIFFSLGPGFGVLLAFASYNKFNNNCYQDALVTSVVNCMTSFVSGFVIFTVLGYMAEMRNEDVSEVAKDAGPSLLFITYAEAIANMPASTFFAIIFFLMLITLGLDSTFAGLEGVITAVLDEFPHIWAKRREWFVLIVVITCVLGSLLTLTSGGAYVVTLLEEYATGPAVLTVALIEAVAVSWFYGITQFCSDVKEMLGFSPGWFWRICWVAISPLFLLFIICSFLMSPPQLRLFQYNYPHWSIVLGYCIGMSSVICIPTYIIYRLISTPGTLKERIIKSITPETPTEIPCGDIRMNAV
Sequence of Sodium-dependent serotonin transporter (Homo sapiens, UniProt P31645) (P31645 whole entry): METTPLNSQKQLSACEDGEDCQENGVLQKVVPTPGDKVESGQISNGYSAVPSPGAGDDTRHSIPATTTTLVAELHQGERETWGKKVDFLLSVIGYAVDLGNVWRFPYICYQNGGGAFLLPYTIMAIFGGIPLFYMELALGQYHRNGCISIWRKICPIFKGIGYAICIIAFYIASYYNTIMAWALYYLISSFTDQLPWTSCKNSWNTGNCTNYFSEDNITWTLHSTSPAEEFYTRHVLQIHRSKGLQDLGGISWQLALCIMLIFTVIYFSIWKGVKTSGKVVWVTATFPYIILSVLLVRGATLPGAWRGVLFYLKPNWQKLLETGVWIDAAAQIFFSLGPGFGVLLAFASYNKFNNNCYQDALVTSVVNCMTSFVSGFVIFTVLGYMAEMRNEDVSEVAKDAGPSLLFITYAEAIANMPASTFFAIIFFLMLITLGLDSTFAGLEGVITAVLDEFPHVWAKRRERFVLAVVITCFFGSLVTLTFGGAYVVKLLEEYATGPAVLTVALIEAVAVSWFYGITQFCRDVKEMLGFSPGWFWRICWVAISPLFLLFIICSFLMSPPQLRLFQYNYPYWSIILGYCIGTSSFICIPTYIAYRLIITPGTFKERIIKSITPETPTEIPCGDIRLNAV

| Emax [1] | Ki [2] | IC50 [3] | Ki [4] | Ki [5] | inhibition [6] | IC50 [7] | SMILES | Activity (Rattus norvegicus) |
| --- | --- | --- | --- | --- | --- | --- | --- | --- |
| 91% | 545 nM | 37.3 nM | 18.6 nM | 3.6 nM | – | – | CCN(CCCc1c[nH]c2ccc(F)cc12)[C@@H]1COc2c(F)ccc(C(N)=O)c2C1 | – |
| 84% | – | 128 nM | 3.5 nM | 7.1 nM | – | – | CCCN(CCCc1c[nH]c2ccc(F)cc12)C1COc2c(F)ccc(C(N)=O)c2C1 (racemic) | – |
| 78% | 1150 nM | 181 nM | 1.5 nM | 8 nM | – | – | CCCN(CCCc1c[nH]c2ccc(F)cc12)[C@H]1COc2c(F)ccc(C(N)=O)c2C1 | – |
| – | 640 nM | 42.7 nM | 34.9 nM | 3.4 nM | – | 135 nM | CCN(CCCc1c[nH]c2ccc(F)cc12)[C@H]1COc2c(F)ccc(C(N)=O)c2C1 | – |
| 69% | – | 36.3 nM | – | 4.2 nM | 26% | – | NC(=O)c1ccc(F)c2c1C[C@H](N(CCCc1c[nH]c3ccc(F)cc13)CC1CC1)CO2 | – |
| – | 506 nM | 82.4 nM | 2.1 nM | 3.3 nM | – | – | NC(=O)c1ccc(F)c2c1CC(N(CCCCc1c[nH]c3ccc(F)cc13)CC1CC1)CO2 (racemic) | – |
| – | 636 nM | > 1000 nM | 7.3 nM | 97.8 nM | – | – | NC(=O)c1ccc(F)c2c1CC(N(CCc1c[nH]c3ccc(F)cc13)CC1CC1)CO2 (racemic) | – |
| 97% | – | 59.9 nM | 3.2 nM | 4.7 nM | 46% | – | CCCN(CCCc1c[nH]c2ccc(F)cc12)[C@@H]1COc2c(F)ccc(C(N)=O)c2C1 | – |
| – | 2023 nM | 59.7 nM | – | 3.9 nM | – | – | NC(=O)c1ccc(F)c2c1C[C@@H](N(CCCc1c[nH]c3ccc(F)cc13)CC1CC1)CO2 | – |
| – | – | 53.5 nM | – | 3.5 nM | 32% | – | NC(=O)c1ccc(F)c2c1CC(N(CCCc1c[nH]c3ccc(F)cc13)CC1CC1)CO2 (racemic) | – |

More lines, now with the values behind:

| SMILES | Emax [1] | Ki [2] | IC50 [3] | Ki [4] | Ki [5] | inhibition [6] | IC50 [7] | Activity (Rattus norvegicus) |
| --- | --- | --- | --- | --- | --- | --- | --- | --- |
| CN(CCCc1c[nH]c2ccc(F)cc12)[C@H]1COc2c(F)ccc(C(N)=O)c2C1 | – | – | 116 nM | 266 nM | 14.8 nM | 37% | – | – |
| COc1cccc2c1CC(N(CCCc1c[nH]c3ccc(F)cc13)CC1CC1)CO2 (racemic) | 91% | – | 42.6 nM | – | – | 44% | – | – |
| CCN(CCCCc1c[nH]c2ccc(F)cc12)C1COc2c(F)ccc(C(N)=O)c2C1 (racemic) | – | 328 nM | 24.1 nM | 330 nM | 0.4 nM | – | > 1000 nM | – |
| NC(=O)c1ccc(F)c2c1CC(N(CCCCc1c[nH]c3ccc(F)cc13)C1CCC1)CO2 (racemic) | – | 645 nM | 300 nM | – | 10.4 nM | – | 24 nM | – |
| NC(=O)c1ccc(F)c2c1C[C@@H](N(CCCc1c[nH]c3ccc(F)cc13)C1CCC1)CO2 | – | – | 18.7 nM | – | 1.5 nM | 21% | – | Active |
| COc1cccc2c1CC(N(CCCc1c[nH]c3ccc(F)cc13)C1CCC1)CO2 (racemic) | 37% | – | 400 nM | – | – | 15% | – | – |
| CCCN(CCCCc1c[nH]c2ccc(F)cc12)C1COc2c(F)ccc(C(N)=O)c2C1 (racemic) | – | 494 nM | 217 nM | 4.4 nM | 12.2 nM | – | – | – |
| NC(=O)c1ccc(F)c2c1C[C@@H](NCCCc1c[nH]c3ccc(F)cc13)CO2 | 85% | – | 197 nM | 45.2 nM | 20.4 nM | 21% | – | – |
| CCN(CCCc1c[nH]c2ccc(F)cc12)C1COc2cccc(OC)c2C1 (racemic) | 96% | 207 nM | 64 nM | 2.3 nM | – | – | – | – |
| CCCN(CCCc1c[nH]c2ccc(F)cc12)C1COc2cccc(OC)c2C1 (racemic) | 80% | 820 nM | 386 nM | – | – | – | – | – |
| NC(=O)c1ccc(F)c2c1CC(N(CCCc1c[nH]c3ccc(F)cc13)C1CCC1)CO2 (racemic) | – | – | 25.2 nM | – | 3 nM | 16% | – | – |
| COc1cccc2c1C[C@@H](N(CCCc1c[nH]c3ccc(F)cc13)C1CCC1)CO2 | – | – | 732 nM | – | – | 15% | 23 nM | – |
| CCN(CCc1c[nH]c2ccc(F)cc12)C1COc2c(F)ccc(C(N)=O)c2C1 (racemic) | – | 416 nM | 883 nM | 33.2 nM | 60.2 nM | – | – | – |
| NC(=O)c1ccc(F)c2c1C[C@H](N(CCCc1c[nH]c3ccc(F)cc13)C1CCC1)CO2 | – | – | 17.4 nM | – | 5.3 nM | – | – | – |
| CCCN(CCc1c[nH]c2ccc(F)cc12)C1COc2c(F)ccc(C(N)=O)c2C1 (racemic) | – | 484 nM | > 1000 nM | 17.6 nM | 88 nM | – | – | – |
| COc1cccc2c1CC(N(C)CCCc1c[nH]c3ccc(F)cc13)CO2 (racemic) | 91% | 610 nM | 15 nM | – | – | – | – | – |

Source: ChEMBL document CHEMBL1138933 (J Med Chem, 2006)
